For data set [1] the following is noted: cited from earlier work.
The test system of data set [2] is isolated rat liver mitochondria (mitochondrial β-oxidation). In words: Mitochondrial biotransformation of alkanoic-acid-based prodrugs. The settings on record: for biotransformation / substrate quality for β-oxidation (in words): isolated rat liver mitochondria; for effect of added carnitine on biotransformation: presence vs. absence of added carnitine. An excerpt:
Mitochondrial Biotransformation of Alkanoic-Acid-Based Prodrugs. Rat liver mitochondria were isolated from livers freshly collected from adult male Sprague-Dawley rats (190-225 g) and were used as soon as possible after isolation (Nadtochiy, et al. (2007) J. Mol. Cell. Cardiol. 42:812; Hoffman et al. (2007) Am. J. Physiol. 292:H101). Livers were removed immediately after CO2 euthanasia of the animal, minced, and homogenized with a glass Dounce homogenizer with loose-fitting pestle in liver mitochondria isolation medium that contained 0.25 M sucrose, 2.0 mM HEPES, 1.0 mM EGTA (pH 7.4) at 4° C. The homogenate was centrifuged once at 1000×g for 3 minutes at 4° C. to remove cellular debris. After removal of visible surface fat, the resulting supernatant was centrifuged at 10,000×g for 10 minutes at 4° C. The supernatant was discarded after removing visible surface fat, and the pellet was suspended in ice-cold liver mitochondria isolation medium and centrifuged again at 10,000×g for 10 minutes at 4° C. The mitochondrial pellet thus obtained was suspended in Ca^2+-depletion buffer (1 mM EGTA, 10 mM NaCl, 5 mM succinate, 195 mM mannitol, 25 mM sucrose, 40 mM HEPES, pH 7.2) at room temperature) and incubated with gentle stirring first at room temperature for 10 minutes and then in an ice bath for 5 minutes. Ca^2+-Depletion buffer serves to chelate calcium, activate mitochondrial respiration, and activate the Na^+/Ca^2+ exchanger. The mitochondrial suspension was then centrifuged at 10,000×g for 10 minutes at 4° C., and the pellet was suspended in liver swelling buffer that contained 195 mM mannitol, 25 mM sucrose, 40 mM HEPES (pH 7.2) at 4° C.; liver swelling buffer allows for ionic/osmotic equilibrium through the remainder of the preparation. The suspension was centrifuged at 10,000×g for 10 minutes at 4° C., followed by the removal of light mitochondria and a final centrifugation at 10,000×g for 10 minutes at 4° C. The mitochondrial pellet was suspended in liver swelling buffer at 4° C. Protein concentrations were determined with the Lowry reagent.^56
The quality of mitochondrial preparations was determined by estimating the respiration control ratio (RCR, i.e., the ratio of state 3 vs. state 4 respiration rates) with a Clark-type oxygen electrode (Oxygraph, Hansatech Instruments, Norfolk, England). The incubation mixtures contained 120 mM KCl, 25 mM sucrose, 5 mM MgCl2, 5 mM KH2PO4, 1 mM EGTA, 10 mM HEPES, 10 mM succinate, 2.5 mg/mL fat-free bovine serum albumin, 0.5-0.8 mg/mL mitochondrial protein, 5 μM rotenone, and 100 μM ADP (pH 7.4) and were incubated at 37° C.
Reaction mixtures were prepared in disposable glass culture tubes and contained 20 mM HEPES, 1 mM EGTA, 100 mM KCl, 5 mM KH2PO4, 10 mM MgCl2, 25 mM sucrose, 2 mM L-carnitine (if added), 5 mM ATP, 10 mg/mL bovine serum albumin, 1.4 mM dithiothreitol, 0.13 mM CoA, and 1 mM substrate (pH 7.4). Reaction mixtures were incubated at 37° C. with gentle stirring. Mitochondrial protein (approximately 5 mg/mL) was added, and the samples were incubated for 5 minutes with gentle mixing, which was maintained during the incubation period, to keep the homogenate suspended. After 5 minutes of incubation, the substrates were added. The substrates were dissolved in methanol and added to the reaction mixtures to a final concentration of 1 mM, unless otherwise stated; the final methanol concentration was ≦0.5%. ω-(1-Methyl-1H-imidazol-2-ylthio)alkanoic acids 28a and 28b were dissolved in distilled water and added to the reaction mixtures to a final concentration of 1 mM. Samples were incubated at 37° C. for 30 minutes with constant gentle mixing, and samples were collected for analysis at t=0, 10, 20, and 30 minutes.
Phenolic metabolite formation, i.e., phenol, 2-methylphenol, 2,6-dimethylphenol, 3,5-dimethylphenol, and 2,6-diisopropylphenol, from ω-(phenoxy)alkanoic acids, was quantified by HPLC analysis.

Data set [3] deals with isolated rat cardiomyocytes. In words: Cytoprotective effects in cardiomyocytes, hypoxia-reoxygenation protocol (Trypan Blue exclusion). The data set is classed as cell-based. The settings on record: for cytoprotective effect in presence of etomoxir: compound 1 μM + etomoxir 20 μM; for cytoprotection: compounds 1 μM, etomoxir 20 μM. As for the experimental part: Upper panel: Alkanoic acids 28a and 28b (1 μM), methimazole (1 μM), and etomoxir (20 μM) were incubated with cardiomyocytes in a hypoxia-reoxygenation protocol. CON, control; HR, hypoxia-reoxygenation; Eto, etomoxir. Statistical analysis (one-way ANOVA, n=3): CON vs. HR, p<0.05; HR vs. HR+28a, p<0.05; CON vs. HR+28a, NS; HR+28a vs. HR+28a+Eto, p<0.05; HR vs. HR+28b, p<0.05; HR+28b vs. HR+28b+Eto, p<0.05; HR vs. Methimazole, NS. Lower panel: Alkanoic acids 25c and 30a (1 μM), 2,6-dimethylphenol (1 μM), and etomoxir (20 μM) were incubated with cardiomyocytes in a hypoxia-reoxygenation protocol. CON, control; HR, hypoxia-reoxygenation; Eto, etoximir. Statistical analysis (one-way ANOVA, n=3): CON vs. HR, p<0.05; HR vs. HR+25c, p<0.05; CON vs. HR+25c, p<0.05; HR+25c vs. HR+25c+Eto, p<0.05; HR vs. HR+30a, p<0.05; HR+30a vs. HR+30a+Eto, p<0.05; HR vs. 2,6-Dimethylphenol, NS.
Primary ventricular cardiomyocytes were isolated from adult rats and viability was assessed […]. All cells were used within 1 hour of isolation and were 80-85% viable and rod-shaped prior to the experiments. Cell viability was quantified with the Trypan Blue exclusion test. The cells were subjected to a hypoxia-reoxygenation protocol designed to simulate cardiac ischemia-reperfusion injury.

For another data set, the system named is IMR90 cells. The conditions noted are these: cited from earlier work.
The conditions of data set [4]: 5 mg/kg daily for two weeks in feed, cited from earlier work.

Structures are written as SMILES.

For `Cc1c(S)ncn1C` [1,5-dimethyl-4-mercaptoimidazole], the “pKa of the thiol group” value in data set [1] is recorded as 2.3.

With `Cc1cccc(C)c1O/C=C\C(=O)O` [(Z)-3-(2,6-dimethylphenoxy)acrylic acid], the “biotransformation / substrate quality for β-oxidation (in words)” value (“biotransformation / substrate quality” below) in data set [2] was “no biotransformation”.

With `O=C(O)CCOc1ccccc1` [Compound 25a, 3-(Phenoxy)propanoic acid], the “effect of added carnitine on biotransformation” value in data set [2] was “no significant difference”.

With `Cc1cccc(C)c1OCCC(=O)O` [Compound 25c, 3-(2,6-Dimethylphenoxy)propanoic acid], in data set [3], the “cytoprotective effect in presence of etomoxir” value (shortened to “cytoprotective effect”) is “blocked by etomoxir” and the cytoprotection result was “cytoprotective”. Further, in data set [2], the “biotransformation / substrate quality” value is “poor substrates”.

In the case of `Cc1cccc(C)c1OCCCCC(=O)O` [Compound 26c, 5-(2,6-Dimethylphenoxy)pentanoic acid], in data set [2], the “biotransformation / substrate quality” value was “poor substrates”.

Consider `Cn1ccnc1SCCC(=O)O` [Compound 28a, 3-(1-methyl-1H-imidazol-2-ylthio)propanoic acid], for which, in data set [3], the “cytoprotective effect” value is reported as “blocked by etomoxir” and the cytoprotection result is “significant cytoprotection”.

`Cn1ccnc1SCCCCC(=O)O` [Compound 28b, 5-(1-Methyl-1H-imidazol-2-ylthio)pentanoic acid]: in data set [3], the “cytoprotective effect” value was “blocked by etomoxir” and the cytoprotection entry is reported as “significant cytoprotection”.

As for `Cc1cccc(C)c1OCSCCC(=O)O` [Compound 29, 3-[(2,6-Dimethylphenoxy)methylthio]propanoic acid], in data set [2], the “biotransformation / substrate quality” value is recorded as “much better substrate” and the “effect of added carnitine on biotransformation” value is on record as “no significant difference”.

As for `Cc1cccc(C)c1O/C=C/C(=O)O` [Compound 30a, (E)-3-(2,6-dimethylphenoxy)acrylic acid], in data set [3], the “cytoprotective effect” value is listed as “blocked by etomoxir” and the cytoprotection result was “cytoprotective”. For the same compound, in data set [2] (30a vs. 25c), the “rate of biotransformation relative to saturated analog 25c” value is “approximately 20 fold”.

Turning to `CC(C)c1cccc(C(C)C)c1O/C=C/C(=O)O` [Compound 30b, (E)-3-(2,6-diisopropylphenoxy)acrylic acid], the “biotransformation / substrate quality” value in data set [2] was “No quantifiable biotransformation”.

In the case of `ONCc1ccccc1` [N-benzylhydroxylamine], the “concentration that delays senescence (as low as)” value with IMR90 cells is 10 µM.

`CNO` [N-methylhydroxylamine]: in the data set with IMR90 cells, the “concentration that delays senescence (as low as)” value is 10 µM.

Turning to `CC(C)(C)NO` [N-tert-butylhydroxylamine], in the data set with IMR90 cells, the “concentration that delays senescence (as low as)” value was 10 µM. Further, in data set [4] (8 Gy whole-body irradiation), the radiation sensitivity entry was “decreased the radiation sensitivity”. The compound-associated toxicity result in data set [4] is “no compound-associated toxicity was observed”.

In the case of `CCOC(=O)[C@@]1(CCCCCCOc2ccc(Cl)cc2)CO1` [etomoxir, reference compound], the cytoprotection result in data set [3] is listed as “no cytoprotective effect”.

Take `Cn1ccnc1S` [methimazole, 2-Mercapto-1-methylimidazole, reference compound]: the cytoprotection result in data set [3] is “failed to provide cytoprotection”.

The record behind these values is patent US8470861B2, “Mitochondria-targeted antioxidant prodrugs and methods of use” (University of Rochester, priority 2005, dated 2013).
